pIC50: −log10 of the molar value.
What was measured:
Type in all cases: cell-based
[1] = test system: human breast cancer (MCF-7); assay: Inhibition of tumour cell proliferation in vitro ([3H]thymidine incorporation), MCF-7; settings: MCF7, MCF-7, 24 hours
Method: (§1) The inhibition of tumour cell proliferation was studied using different types of human cancer cell lines. The cell lines under investigation were small cell lung carcinoma (NYH), non small cell lung carcinoma (NCI-H460), and breast cancer (MCF-7) using the following general procedure:
(§2) The cells were cultured in vitro for 24 hours in the presence of the compound under investigation. DNA synthesis was measured by incorporation of [3H]thymidine, and the median inhibitory concentrations (IC50) of the compounds were calculated.

[2] = test system: human small cell lung carcinoma (NYH); assay: Inhibition of tumour cell proliferation in vitro ([3H]thymidine incorporation), NYH; settings: 24 hours
Method: as §1, §2

[3] = test system: human non small cell lung cancer (NCI-H460); assay: Inhibition of tumour cell proliferation in vitro ([3H]thymidine incorporation), NCI-H460; settings: NCI-H460, 24 hours
Method: as §1, §2

pIC50 [1] | pIC50 [2] | pIC50 [3] | SMILES
7.59 | 8.36 | 7.19 | N#CN=C(NCCCCCCCCCCCCNC(=NC#N)Nc1cccnc1)Nc1cccnc1 [Example No. 6, 1,12-Bis(N'-cyano-N"-3-pyridylguanidino)dodecane]
8.18 | 9.04 | 7.19 | N#CN=C(NCCCCCCCCCCNC(=NC#N)Nc1ccncc1)Nc1ccncc1 [Example No. 8, 1,10-Bis(N'-cyano-N"-4-pyridylguanidino)decane]
7.89 | 9.30 | 7.16 | N#CN=C(NCCCCCCCCCCCCNC(=NC#N)Nc1ccncc1)Nc1ccncc1 [Example No. 14, 1,12-Bis(N'-cyano-N"-4-pyridylguanidino)dodecane]
